The record followed here is patent US6194217A, “Method of diagnosing or categorizing disorders from biochemical profiles” (ESA, Inc., priority 1993, dated 2001).

Data set [1] can be described thus: Stability in perchloric acid extracts of nasal secretions over 24 hours at room temperature. It counts as physicochemical. From the text: (§1) Two characteristics make nasal secretions attractive for neurochemical analysis. The secretions are close to the site or origin of the compounds being measured and they are in a strong reducing environment. Oxidation potential measurements of saline suspensions of nasal secretions with platinum vs. Ag/Ag/cl yield values from -0.230 to -0.300 mV compared to lumbar CSF values of -0.050 to -0.170. The reducing character of the tissue is consistent with observation of a large number of easily oxidized peaks on the lower channels of the chromatographic pattern. The reducing character of the sample makes it highly attractive for clinical use because of the stability inferred for the target compounds. Indeed preliminary studies indicate no change in 5-hydroxyindoleacetic acid or homovanillic acid over 24 hours in perchloric acid extracts at room temperature. From the number of peaks in the 35-50 min region, the nasal mucosa also appear to be a stable matrix for small peptides, including fragments of β-amyloid peptide.
Swabs were extracted by cutting the tip and placing it in 300 μl of 0.1 M HClO4, they ere vortexed for 1 min. centrifuged and then reextracted in another 300 μl of 0.1 M HClO4. […] Following centrifugation the pellets are combined, and can be extracted with 40:60 acetonitrilehexane for analysis of ubiquinones and larger peptides.

Data set [2] is described as follows: Incubation of β-amyloid in saline suspensions of nasal mucosa, development of electroactive peaks. It counts as in vitro ADME. Conditions: over 6 hours, FIG. 7.
Excerpt: as §1

Where two headings read alike, the source gives them in different places.

As for `O=C(O)Cc1c[nH]c2ccc(O)cc12` [5-hydroxyindoleacetic acid], in data set [1], the “change over 24 hours (stability)” value was “no change”.

Take `COc1cc(CC(=O)O)ccc1O` [homovanillic acid]: in data set [1] (24 hours, perchloric acid extracts, room temperature, preliminary studies), the “change over 24 hours (stability)” value is given as “no change”.

Turning to β-amyloid, in data set [2], the “development of electroactive peaks” value was “development over 6 hours of electroactive peaks” and the “electroactive peaks which corresponded to original peaks in the suspension” value is reported as “five”.
